Data on three molecules can be found in patent US20250359549A1, “PESTICIDE BACTERICIDAL COMPOSITION, WATER DISPERSIBLE GRANULE AND PREPARATION METHOD AND USE THEREOF” (QINGDAO RAINBOW CHEMICAL CO., LTD., priority 2023, published 2025).

The conditions of data set [1]: 20° C., cited from earlier work.
The next data set relates to plasmopara viticola. The data set is described as follows: Indoor toxicity measurement, leaf disk method. Conditions: grape downy mildew; for EC50: Plasmopara viticola, foliar, read-out: Measured EC50 value (X2). The format is in vivo. On the procedure: After the pesticide solution was naturally dried in air, each treated leaf disc with an upward back was placed in a culture dish, and absorbent paper moistened with the same pesticide solution was placed at the bottom of the culture dish. 15 leaf discs were placed in a concentric circle for each dish, with 4 repetitions for 1 dish treated. Blank control was treated with a 0.1% Tween-80 aqueous solution. Inoculation was performed after 24 h of pesticide treatment. […] The spore sac suspension was cultured with an artificial climate chamber. […] The severity of the disease was determined according to the percentage of the diseased area on the leaf disc to the leaf disc area, the number of diseased leaf discs and the severity of the disease were recorded, and the disease index and prevention and control effect were calculated according to the formula. […] The toxicity regression curve equation y=a+bx and the correlation coefficient r were obtained, and the EC50 of each single agent and different proportions of mixtures was calculated based on the regression equation. Based on the EC50 values of each single agent and compounded agent, the synergistic coefficients (SR) of each compounded agent were calculated according to Wadley method, and the compounding effect was evaluated by using SR value. […] In equations (1) and (2), SR is the synergistic coefficient of the mixture; X1 is the theoretical EC50 value of the mixture, unit: milligrams per liter (mg/L); X2 is the measured EC50 value of the mixture, unit: milligrams per liter (mg/L). […] X1′ is the theoretical value of the mixture, unit: milligrams per liter (mg/L); X2 is the measured value of the mixture, unit: milligrams per liter (mg/L). […] Similarly, the synergistic coefficients SRs of chlorothalonil and picoxystrobin (A+C)+tebuconazole (B) (referred to as (A+C)+B), tebuconazole and picoxystrobin (B+C)+chlorothalonil (A) (referred to as (B+C)+A) can be calculated.

For data set [2] the following is noted: cited from earlier work.
The conditions of data set [3]: 25° C.; cited from earlier work.

SMILES strings stand for the structures. Read-outs that look alike come from different tables or passages of the source.

As a reminder, the EC50 is the concentration needed to bring the measured effect to its halfway point. For the molecule `CC(C)(C)C(O)(CCc1ccc(Cl)cc1)Cn1cncn1` (racemic) [Tebuconazole], the “solubility in an organic solvent” value in data set [1] (dichloromethane) was more than 200 mg/mL; in data set [1] (hexane), less than 0.1 mg/mL. In the data set on plasmopara viticola, the EC50 was 3.29 µg/mL.

For the molecule `N#Cc1c(Cl)c(Cl)c(Cl)c(C#N)c1Cl` [Chlorothalonil], the Hydrolysis result in data set [2] (pH>9) is reported as “slowly hydrolyzed”. For the same molecule, the Stability result in data set [2] (storage at room temperature, weak alkaline and acidic aqueous solutions, UV radiation) is “stably stored at room temperature, and stable to weak alkaline and acidic aqueous solutions and UV radiation”. In addition, in data set [3], the “distribution coefficient log P” value is 2.92. In addition, in the data set with plasmopara viticola, the EC50 is 24.6 µg/mL.

For the molecule `CO/C=C(/C(=O)OC)c1ccccc1COc1cccc(C(F)(F)F)n1` [Picoxystrobin], the “Measured EC50 value (X2)” value in the data set with plasmopara viticola is 2.48 µg/mL.
